Experimental data published in patent US6737547B1, “Compositions containing and methods of using N-acyl-1H-aminoindenes” (Teva Pharmaceutical Industries, Ltd., priority 1998, dated 2004).
Entries after “also recorded” stand apart in the source; their conditions may differ.

Key:
[1] = system: guinea-pig ileal preparation; assay: Potentiation of adenosine depression of contractile response, procedure II (after exposure to and washout of test compound); conditions: for Mean potentiation ratio ± SEM: drug conc. (uM): 3, 100-400, 2a, 1000, 2, 1000
Protocol: (§1) The test system used is the intramural electrically-stimulated guinea-pig ileal preparation as described in EXAMPLE 10. Adenosine added to the organ bath in rising concentrations in the range 0.1-10 uM causes a dose-dependent decrease in contraction amplitude, with an EC50 of about 1 uM.
(§2) The calculated effect is the product of the responses to each of the two agents when applied separately. The potentiation ratio is defined as (100%found)/(100-% calculated).
In all cases, the difference between the calculated and observed response was statistically significant. […] In procedure II, the dose response to adenosine was determined before and after exposure of the preparation to the test drug and washout of the test drug from the organ bath. In this case, significant potentiation of adenosine was observed even though the test drug had been washed out from the organ bath. In fact, the potentiation ratio, as defined earlier, was even higher than found in the presence of the test compounds (Procedure I), reaching very high values.

[2] = system: guinea-pig ileal preparation; assay: Decrease of contractile response to intramural electric stimulation in the guinea-pig ileal preparation; conditions: Cavia porcellus; calculated from logit plot; contractile response to intramural electric stimulation; read-out: EC50
Protocol: A 2 cm-long section of the distal ileum freshly dissected from a CO2-asphyxiated guinea pig is cleaned from adhering tissue and mounted in an organ bath (5 mL) containing Krebs solution constantly aerated with oxygen containing 5% CO2. The initial tension is adjusted at 5 g per strip. Tension is monitored isometrically with a Grass FTC3 force transducer. Intramural electric stimulation is delivered through a platinum electrode from a Grass stimulator model s88, s44 at supramaximal voltage (V) and a frequency of 0.1/s. The preparation develops a rhythmic contractile response at maximal amplitude which is stable over time. Addition of test drugs to the organ bath causes a dose-dependent decrease in contraction amplitude which is stable over 5-8 minutes. The relative decrease in contractile response indicates the relative potency of a given agent in a series.
Blocking or decreasing neural excitability evoked by programmed electric stimulation is another indicator of a compound's potential neuroprotective activity. A convenient test system uses the guinea-pig ileal preparation mounted in an organ bath (see, for example, Eiichi Hayashi et al., European J. Pharmacol 48, 297-307, 1978).

[3] = system: guinea-pig ileal preparation; assay: Decrease in contractile response of guinea-pig ileum evoked by the nicotinic agonist DMPP; conditions: for EC50: Cavia porcellus, calculated from logit plot, inhibiting contractile response to 1 uM DMPP, read-out: EC50; for reversibility of the depression by rising concentrations of DMPP: test compound at 200 uM fixed bath concentration, FIG. 8
Protocol: A strip of guinea-pig ileum is mounted in an organ bath, as described in EXAMPLE 10. 1-N,N-dimethyl-4-N-phenylpiperazinium chloride (DMPP) is added at intervals of about 15 minutes in order of increasing dose, to cause bath concentrations in the range of 0.1-10 uM. A brief contraction follows each addition. The amplitude of the contractile response is used to derive a dose-response relationship for DMPP. Usually, a bath concentration of 1 uM DMPP will give 90-100% of the maximal response obtainable in the given preparation. One of two procedures follows this: A dose-response of a test compound is determined in the presence of a fixed concentration of DMPP. This is done by incubating the preparation with a given concentration of the test compound, then challenging it with DMPP at a dose to give 1 uM bath concentration. The procedure is repeated with the next higher concentration of the test compound. In the other procedure, the dose-response of DMPP is determined in the presence of a fixed bath concentration of the test compound, usually 200 uM.
When intramural nerve stimulation occurs, as in the case of electrical stimulation, the contractile effector substance is released from nerve endings by a depolarization wave that propagates along the parasympathetic nerve fiber until its junction with smooth muscle of the ileum. An alternative but not equivalent procedure is stimulation of parasympathetic ganglia by an appropriate nicotinic agonist such as 1-N,N-dimethyl-4-N-phenylpiperazinium chloride (DMPP). Stimulation of parasympathetic ganglia causes a depolarization wave in the post-ganglionic nerve fiber which terminates on the smooth muscle of the ileum, causing release of contractile effector and contraction (see, for example, E. S. Vizi, Acetylcholine release from guinea-pig ileum by parasympathetic ganglion stimulants and gastrin-like polypeptides, Br. J. Pharmacol. 47, 765-77. 1973).

[4] = system: guinea-pig ileal preparation; assay: Potentiation of adenosine depression of contractile response, procedure I (in the presence of test compound); conditions: drug present
Protocol: as §1
In procedure I, the effect of a given concentration of adenosine, usually, 0.2 or 0.4 uM was first determined and related to the full contractile response in the absence of adenosine. […] The amplitude of the contractile response was recorded. Now, adenosine was added at the same dose initially used, and the effect of adenosine in the presence of the test compound was recorded.
as §2

[5] = system: Male ICR mice; assay: Protection against maximal electroshock-induced seizure in mice (MES); assay type: in vivo; conditions: for protected/total: electroshock 30 min after medication; for ED50: Mus musculus, median effective dose, maximal electroshock, mice, ip, read-out: ED50 (95% confidence limits)
Protocol: Male ICR mice were used. The rodent shocker apparatus consisted of a shock stimulator Type 221 (Hugo Sachs Elektronik, Germany) with a current setting for mice. Thirty minutes after medication with a given agent, given intraperitoneally as a fine slurry in methyl cellulose 0.5% in distilled water, each mouse received an electroshock of 50 mA for 0.2 seconds, applied to the eye, at a maximum of 250 V/300 mA. The ratio of mice protected against seizure in a group of four per dose was determined and used as an indicator of neuroprotective activity.
Protection of mice against seizures induced by electroshock is a widely used model to probe for potential anti-epileptic agents (see, for example, Y. I. Sohn et al., Anticonvulsant properties of diphenylthiohydantoin, Arch. Int. Pharmacodyn. 188, 284-289, 1970).

[6] = system: mice; assay: Protection against hypobaric hypoxia in mice (survival time); assay type: in vivo
Protocol: The apparatus used consisted of two chambers A and B connected by a three-way valve. […] The air in chamber A was evacuated to a pressure of 100 mm Hg. The three way valve was turned to disconnect chamber B from room air and to connect it to chamber A. At this point, the pressure in B fell to 200 mm Hg. Survival of residing mice was determined up to a maximum exposure of 15 minutes, and is defined as the time between onset of hypoxia to cessation of respiration.

[7] = adenosine 0.4 uM, after exposure and washout, 5, 50-400, 6, 50-400
[8] = adenosine 0.4 uM, after exposure and washout, drug conc. range (uM): 3, 100-400, 5, 50-400, 6, 50-400
[9] = adenosine 0.4 uM, drug conc. range (uM): 3, 20-400, 5, 50-200, 6, 25-50
[10] = Mus musculus, ip, mice, 200 mm Hg, read-out: survival ± SD (survival time as percent of vehicle control)
[11] = Mus musculus, 50 mg/kg, ip, mice, 200 mm Hg, read-out: survival ± SD (survival time as percent of vehicle control)
[12] = adenosine 0.2 uM, drug conc. range 40-400 uM

Compound | Mean potentiation ratio ± SEM [1, 7] | EC50 [2] | EC50 [3] | reversibility of the depression by rising concentrations of DMPP [3] | protected/total ([5]; 100 mg/kg intraperitoneally) | ED50 [5] | response vs control in vivo at 25 mg/kg [6, 10] | response vs control in vivo at 50 mg/kg [6, 11] | response vs control in vivo at 100 mg/kg [6, 10] | also measured
CC(=O)NC1=CCc2ccccc21 [Compound 3, N-Acetyl-3-amino-1H-indene] | 1.54 ± 0.25 | 251 µM | 170 µM | not reversible; also recorded: irreversibly blocked | 1/4 | 116 mg/kg | 735 ± 238% | 879 ± 237% | 703 ± 242% | potentiation ratio, Max [1, 8]: 1.99; potentiation ratio, Min [1, 8]: 1.14; Mean potentiation ratio ± SEM [4, 9]: 1.49 ± 0.075; potentiation ratio, Max [4, 9]: 1.74; potentiation ratio, Min [4, 9]: 1.29; protected/total ([5]; 125 mg/kg intraperitoneally): 2/4; protected/total ([5]; 150 mg/kg intraperitoneally): 4/4; protection over 2a (control) ([6]; 50 mg/kg, mice): 1000%; side effects ([6]; 50 mg/kg, mice): minor and transient side effects such as slight sedation, hypopnea and defecation; response vs control in vivo at 12.5 mg/kg ([6]; Mus musculus, 12.5 mg/kg, ip, mice, 200 mm Hg, read-out: survival ± SD (survival time as percent of vehicle control)): 637 ± 341%; activity in the hypobaric hypoxia model (in words) ([6]; dose of 25 mg/kg, listed in decreasing order of activity): strong activity
CC(=O)N[C@@H]1CCc2ccccc21 [Compound 2a, (R)-N-acetyl-1-aminoindan, reference compound] | 1.41 | 748 µM | 279 µM | almost to full restoration | 4/4 | 42 mg/kg | 142 ± 94% | 299 ± 69% | 375 ± 72% | rate of restoration of the original response to adenosine after washout ([1]; after exposure to and washout of the potentiating agent): fastest; Mean potentiation ratio ± SEM [4, 12]: 1.31 ± 0.05; potentiation ratio, Max [4, 12]: 1.43; potentiation ratio, Min [4, 12]: 1.19; protected/total ([5]; 25 mg/kg intraperitoneally): 0/4; protected/total ([5]; 50 mg/kg intraperitoneally): 3/4; response vs control in vivo at 36 mg/kg ([6]; Mus musculus, 36 mg/kg, ip, mice, 200 mm Hg, read-out: survival ± SD (survival time as percent of vehicle control)): 110 ± 57%
